The target of the test is DHFR (E. coli) (Escherichia coli, UniProt P0ABQ4). The experiment in a line: 50% inhibition of the bacterial dihydrofolic acid reductase (DHFR), E. coli. In kind it is biochemical. The source says:
The compounds of formula I have antibacterial activity. More specifically, the compounds of formula I inhibit the bacterial dihydrofolic acid reductase (DHFR) and, moreover, potentiate the activity of sulfonamides and other dihydrofolic acid synthetase inhibitors. Exemplary of the sulfonamides which are potentiated by the compounds provided by the present invention are sulfadiazine, sulfadimethoxine, sulfadoxine, sulfamethoxazole, sulfisoxazole, sulfamoxole, 3-sulfanilamido-4,5-dimethylisoxazole, sulfalene, sulfamerazine, sulfameter, sulfamethazine and 6-methoxy-4-sulfanilamido-pyrimidine. […] Quantitatively, however, compared with known compounds, the compounds of formula I of the present invention are characterized by lower 50% inhibitory concentrations of the bacterial DHFR, for example, in the case of E. coli, and by substantially higher Q-values, that is 50% inhibition of the DHFR in the case of rats/50% inhibition of the DHFR in the case of E. coli, which represents a measurement of the selectivity of the inhibition of the bacterial DHFR.

As usually defined, the IC50 is the point on the concentration scale where inhibition reaches its midpoint.

For the molecule `C=C(C)c1c(OCC)cc(Cc2cnc(N)nc2N)cc1OCC` [Compound 1, 2,4-diamino-5-(3,5-diethoxy-4-isopropenylbenzyl)-pyrimidine], the IC50 was 2.2 nM. To `C=C(C)c1c(OC)cc(Cc2cnc(N)nc2N)cc1OC` [Compound 2, 2,4-diamino-5-(4-isopropenyl-3,5-dimethoxybenzyl)-pyrimidine] belongs 3.4 nM; to `C=C(C)c1c(OC)cc(Cc2cnc(N)nc2N)cc1OCC` [Compound 3, 2,4-diamino-5-(3-ethoxy-4-isopropenyl-5-methoxybenzyl)-pyrimidine], 3.2 nM.

(Values after patent US4203980A, “Benzylpyrimidine derivatives” (Hoffmann-La Roche Inc., priority 1977, dated 1980).)
